The values that follow come from patent publication US20170082611A1, “Methods for Inhibiting Epithelial to Mesenchymal Transition by Inhibition of FOXS1” (Regenerative Research Foundation, priority 2015, published 2017).

Experiment [1] concerns RPE cells. Description: Screening assay for agents that induce EMT: RPE morphology by light microscope. In kind it is cell-based, human. The note with it: 10 ng/ml, 5 days, DMEM/F12 with 5% FBS.
Protocol: RPE were plated at a confluency of 30,000 cells in 1 well of a 24-well plate in DMEM/F12 with 5% FBS, adding TGFβ (10 ng/ml) or TNFα (10 ng/ml), or both. After 5 days, RPE morphology was assessed by a light microscope.
Another experiment relates to p38. Kind of experiment: p38 immunostaining (localization) in RPE cells. As to conditions: DMEM 5% FBS, 5 days.
Experiment [2] deals with hTERT HMEnt (HME) breast epithelial cell line. Kind of experiment: EMT and FOXS1 transcripts in breast epithelial cells.
Experiment [3] relates to RPE cells. Description: p38 blockade in TnT-induced RPE EMT (masses and EMT transcripts). Format: cell-based, human. As to conditions: TnT + 10 ng/ml SB202190, 5 days. The protocol:
It was next reasoned that, if p38 is involved in the TnT-induced gene changes observed in SNAIL, SLUG and TWIST transcripts, then blocking p38 should result in the loss of TnT-induced EMT changes. Therefore an experiment was conducted to examine RPE-EMT with an additional condition of TnT+the p38 inhibitor SB202190.

Experiment [4] concerns RPE cells. Kind of experiment: FOXS1 expression in EMT+p38 inhibitor condition. Format: cell-based, human. The note with it: TnT + p38 inhibitor, 5 days.
The next experiment deals with Primary human RPE lines. Description: qPCR of EMT and RPE fate transcripts in primary RPE cultured with NAM for 21 days. In kind it is cell-based. As to conditions: 10 mM NAM, versus vehicle. The protocol:
Cadaver donor globes were received from the National Disease Research Interchange (Philadelphia, Pa., USA), and RPE cells were isolated and grown to establish a RPE monolayer (Blenkinsop et al., (2015), Investigative Ophthalmology & Visual Science 56, 7085-7099; Blenkinsop et al., (2013), Methods Mol Biol 945, 45-65.). Primary human RPE lines were cultured in the presence of Nicotinamide (NAM) (Cat. #N0636; Sigma) at a concentration of 10 mM or vehicle (cell culture grade water) for 21 days. […] Additionally, RPE fate associated protein transcripts were tested by qPCR.

Experiment [5] deals with RPE cells. Description: Effect of NAM in the TNT-induced EMT model, qPCR. As to conditions: 10 mM NAM. In kind it is cell-based, human. The protocol: In a parallel experiment, the effect of NAM was tested in an EMT model. EMT was induced in RPE cells using 10 ng/ml TGFβ1 and TNFα. RPE cells were trypsinized and passaged into a 24 well plate. 24 hours after passaging, RPE cells were treated with TGFβ1 and TNFα (TNT condition) for 7 days. To test the effect of NAM, we added 10 mM NAM or vehicle to the medium used for EMT model (using TNT). EMT associated protein transcripts including FOXS1 were analyzed by qPCR.
Background: Quantitative PCR measures a nucleic acid by following its amplification.

As to TNFα, the RPE morphology result in the experiment on RPE cells [1] is given as “acquired a fibroblastic morphology”. Further, in the experiment on p38, the p38 localization result is recorded as “found cytoskeletally”.
Regarding “TGFβ: cytokine used at 10 ng/ml to induce EMT”, in the experiment with RPE cells [1], the RPE morphology entry is listed as “acquired a fibroblastic morphology”. In addition, the p38 localization result in the experiment with p38 was “localized predominantly perinuclearly”. For the same compound, the FOXS1 transcript entry in experiment [2] is “increased”.
Turning to `Oc1ccc(-c2nc(-c3ccncc3)c(-c3ccc(F)cc3)[nH]2)cc1` [SB202190], in the experiment with RPE cells [3], the SLUG transcription result is recorded as “stayed at or near control levels”, the SNAIL transcription entry was “stayed at or near control levels”, the TWIST transcription entry is reported as “stayed at or near control levels” and the “growth of three dimensional masses” value is given as “did not grow”. Also, the FOXS1 gene transcription result in the experiment with RPE cells [4] is on record as “elevated in the TnT condition, but not when the p38 inhibitor was added”.
In the case of `NC(=O)c1cccnc1` [NAM, Nicotinamide], in the experiment with Primary human RPE lines, the “EMT associated marker FOXS1” value was “inhibited”, the “EMT associated marker SNAIL” value is “inhibited”, the “RPE marker BEST1 expression” value is “increased expression” and the “RPE marker RPE65 expression” value was “increased expression”. Also, in the experiment on RPE cells [5] (as early as day 1 post induction of EMT), the “EMT marker SNAIL” value is listed as “inhibited”. Further, the “EMT marker FOXS1” value with RPE cells [5] (by day 3 post induction of EMT) is recorded as “clear inhibition”. The “EMT marker SLUG” value in the experiment on RPE cells [5] (by day 5 post induction of EMT) is given as “clear inhibition”.
